Cytotoxicity data for one compound are collected here from patent US6956059B2, “Anti-inflammatory and immunomodulatory amino acid derivatives, their preparation and use” (Croda International, plc, priority 2001, dated 2005).

For this series, the system named is blood-brain barrier. Kind of series: transport across the blood-brain barrier (methodology of Dehouck et al); cytotoxicity observation. The format is cell-based. To be noted: used at the concentration of 5 μm/l; blood-brain barrier transport experiments. As to the method:
In accordance with the methodology described by Dehouck et al in J Cont Rel 81-91 (1992), experiments were performed to study the transport of the compound of Example 2 across the blood-brain barrier.

As to `CCCCCCCC/C=C\CCCCCCCCCCCCCC(=O)NCCCC[C@H](NC(=O)CCCCCCCCCCCCC/C=C\CCCCCCCC)C(=O)OCC` [Example 2, Nα,Nε-di-(z-15-tetracosenoyl)-L-lysine ethyl ester], the cytotoxicity entry is “not cytotoxic”.
